Measurements taken from patent US20130116284A1, “LIPOIC ACID AND NITROXIDE DERIVATIVES AND USES THEREOF” (RADIKAL THERAPEUTICS INC., priority 2010, published 2013).
Where “and” joins values, the source holds several entries; their conditions need not be identical. Equal values may be shown once.

Tests used:
[1] = test system: RAW cells; experiment: cytoprotection of RAW cells exposed to H2O2 (viability); settings: 0.1 μM, same model system (not shown)
[2] = test system: PARP; settings: read-out: PARP inhibitor IC50; stated for the monofunctional PARP inhibitor, no method given; cited from earlier work
[3] = test system: CD mice; experiment: rodent model of inflammation induced by zymosan (lung MPO, lung histology); format: in vivo; settings: 60 mg/kg IP at 1 hour after zymosan 500 mg/kg IP; lung at 18 hours; vs. vehicle control
Procedure: In this study, we tested the potency of compound 1 (R-503) in treatment of an inflammation induced by zymosan, a glucan with repeating glucose units connected by β-1,3-glycosidic linkages.
Male CD mice (20-22 g) were randomly allocated into the following groups (n=10 per experimental arm): (i) zymosan+vehicle group, wherein zymosan (500 mg/kg) was administered via an intraperitoneal (IP) route; (ii) zymosan+compound 1 group, which was identical to the zymosan+vehicle group except for the administration of compound 1 (60 mg/kg IP) at 1 hour after zymosan challenge; and (iii) Sham+vehicle group, which was identical to the zymosan+vehicle group but vehicle was administered in place of zymosan. 18 hours after zymosan admininstration, lung samples were scored for histologic injury by a pathologist blinded to group assignment and neutrophil concentration was determined by measurement of myeloperoxidase (MPO) activity. The following morphological criteria were used for scoring: 0, normal lung; grade 1, minimal edema or infiltration of alveolar or bronchiolar walls; grade 3, moderate edema and inflammatory cell infiltration without obvious damage to lung architecture; grade 4, severe inflammatory cell infiltration with obvious damage to lung architecture. […]

[4] = test system: Balb/c mice; experiment: murine model of chlorine inhalational lung injury (lung MPO, lung histology); format: in vivo; settings: 30 mg/kg/dose IP q12h from 15 minutes after 400 ppm Cl2 for 30 minutes; lung at 24 hours; relative to placebo (D5W)
Procedure: In this study, we potency of compound 1 (R-503) in treatment of chlorine inhalational lung injury was tested.
Male Balb/c mice were exposed in a cylindrical glass chamber to 400 ppm Cl2 in air for 30 minutes. 15 minutes after the conclusion of Cl2 exposure, mice were initiated on a q12h regimen of compound 1 (30 mg/kg/dose IP in 0.5 ml dextrose 5% in water, D5W). At 24 hours, mice were euthanized and lung tissue was taken for examination of polymorphonuclear neutrophil (PMN) infiltration (as reflected by MPO) and lung histology (H&E staining). The following morphological criteria were used for scoring: 0, normal lung; grade 1, minimal edema or infiltration of alveolar or bronchiolar walls; grade 3, moderate edema and inflammatory cell infiltration without obvious damage to lung architecture; grade 4, severe inflammatory cell infiltration with obvious damage to lung architecture. As shown in FIGS. 4A-4B, compound 1 therapy reduced the elevation in MPO and histological lung damage by 82% and 73%, respectively, relative to placebo (D5W).

[5] = molecular target: PARP-1 (Homo sapiens, UniProt P09874); experiment: in vitro PARP inhibition potency assay, Universal calorimetric PARP-1 Assay Kit (Trevigen); format: biochemical; settings: 10 point curve, 0.16 nM to 250 nM
Sequence of PARP-1 (P09874 whole entry): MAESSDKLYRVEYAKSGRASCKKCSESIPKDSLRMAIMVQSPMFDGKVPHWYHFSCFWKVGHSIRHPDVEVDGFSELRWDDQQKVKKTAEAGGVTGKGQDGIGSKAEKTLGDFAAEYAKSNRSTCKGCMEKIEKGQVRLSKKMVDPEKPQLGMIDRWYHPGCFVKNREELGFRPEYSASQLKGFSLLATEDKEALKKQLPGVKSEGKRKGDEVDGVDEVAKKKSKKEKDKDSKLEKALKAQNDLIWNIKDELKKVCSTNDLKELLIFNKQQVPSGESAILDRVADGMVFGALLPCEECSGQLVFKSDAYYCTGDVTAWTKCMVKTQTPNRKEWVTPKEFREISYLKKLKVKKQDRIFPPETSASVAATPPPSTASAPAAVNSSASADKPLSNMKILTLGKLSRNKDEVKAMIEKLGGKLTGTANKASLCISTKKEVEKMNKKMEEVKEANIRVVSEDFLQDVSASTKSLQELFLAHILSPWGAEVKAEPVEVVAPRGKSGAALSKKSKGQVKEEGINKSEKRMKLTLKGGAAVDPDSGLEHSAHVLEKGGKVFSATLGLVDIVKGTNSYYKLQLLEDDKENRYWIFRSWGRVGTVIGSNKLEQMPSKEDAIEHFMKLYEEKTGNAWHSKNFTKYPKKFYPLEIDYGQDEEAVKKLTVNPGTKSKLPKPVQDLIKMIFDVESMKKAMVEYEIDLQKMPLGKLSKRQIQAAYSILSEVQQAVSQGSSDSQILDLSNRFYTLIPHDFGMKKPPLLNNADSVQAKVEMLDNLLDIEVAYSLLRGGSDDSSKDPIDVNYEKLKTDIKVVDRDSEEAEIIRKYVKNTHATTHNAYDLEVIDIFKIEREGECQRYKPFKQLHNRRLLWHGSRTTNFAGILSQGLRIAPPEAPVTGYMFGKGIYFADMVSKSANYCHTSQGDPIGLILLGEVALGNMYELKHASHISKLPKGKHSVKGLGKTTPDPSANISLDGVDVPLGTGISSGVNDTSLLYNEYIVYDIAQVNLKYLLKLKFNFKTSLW
Procedure: In this experiment, the PARP inhibition activity of compound 1 (R-503) was evaluated in in vitro potency assay using Universal calorimetric PARP-1 Assay Kit (Trevigen, Gaithersburg, Md.).

In the case of `O=C(O)CCCC[C@@H]1CCSS1` (racemic) [lipoic acid], the “cytoprotective effect in RAW cells exposed to H2O2” value [1] is reported as “no beneficial effect”.
For `C[C@]1(c2nc3c(C(N)=O)cccc3[nH]2)CCCN1` [ABT-888], the IC50 [2] is listed as less than 5 nM.
In the case of `NC(=O)c1cccc2[nH]c(CCCCC3CCSS3)nc12` (stereo not shown) [compound 1, 2-(4-(1,2-dithiolan-3-yl)butyl)-1H-benzo[d]imidazole-4-carboxamide], the “reduction of elevation in lung MPO activity” value [3] is reported as 65%, the “reduction of lung histologic injury” value [3] is reported as 80% and the “reduction of elevation in lung MPO” value [4] is reported as 82%. For the same compound, the “reduction of histological lung damage” value [4] was 73% and the IC50 [5] was 26.2 nM and 26 nM.
